Data from patent publication US7396837B2, “Antitumoral analogs of lamellarins” (Pharma Mar, S.A.U., priority 2002, dated 2008).
Read-outs that look alike come from different tables or passages of the source.

Key:
Assay type in all cases: cell-based
IGROV = test: SRB colorimetric cell growth inhibition assay, IGROV; conditions: Homo sapiens, IGROV; for GI50: GI=growth inhibition, read-out: GI50 IGROV; for CC50: read-out: LC50 IGROV; for IC (TGI): read-out: TGI IGROV
Outline: (§1)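 Growth inhibition (GI), cytostatic total growth inhibition (TGI) and cytotoxic cell-kill (LC) parameters were calculated from SRB-stained cultures held under constant compound exposure, triplicates averaged.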

LoVo-Dox = test: SRB colorimetric cell growth inhibition assay, LoVo-Dox (MDR); conditions: Homo sapiens, LOVO-DOX; for GI50: GI=growth inhibition, read-out: GI50 LOVO-DOX; for CC50: read-out: LC50 LOVO-DOX; for IC (TGI): read-out: TGI LOVO-DOX
Outline: as §1

K-562 = test: SRB colorimetric cell growth inhibition assay, K-562; conditions: Homo sapiens, K562, K-562; for GI50: GI=growth inhibition, read-out: GI50 K-562; for CC50: read-out: LC50 K-562; for IC (TGI): read-out: TGI K-562
Description: (§2) The finality of these assays is to interrupt the growth of an “in vitro” tumor cell culture by means a continued exhibition of the cells to the sample to be testing.
(§3) A colorimetric type of assay, using sulforhodamine B (SRB) reaction has been adapted for a quantitative measurement of cell growth and viability (following the technique described by P. A. Skehan, et al., J. Natl. Cancer Inst. 1990, 82, 1107-1112).
(§4) This form of assay employs 96 well cell culture microplates of 9 mm diameter (T. Mosmann et al., J. of Immunological Methods 1983, 65, 55-63; G. T. Faircloth et al., J. of Tissue and Culture Methods 1988, 11, 201-205).
(§5) Most of the cell lines are obtained from American Type Culture Collection (ATCC) derived from different human cancer types.
(§6) The values for mean +/− SD of data from triplicate wells are calculated. Some parameters for cellular responses can be calculated: GI=growth inhibition, TGI=total growth inhibition (cytostatic effect) and LC=cell killing (cytotoxic effect).

LNCaP = test: SRB colorimetric cell growth inhibition assay, LNCaP; conditions: Homo sapiens, LNCaP, LN-caP; for GI50: GI=growth inhibition, read-out: GI50 LN-caP; for CC50: read-out: LC50 LN-caP; for IC (TGI): read-out: TGI LN-caP
Description: as §2, §3, §4, §5, §6

HT-29 = test: SRB colorimetric cell growth inhibition assay, HT-29; conditions: Homo sapiens, HT-29, HT-29; for GI50: GI=growth inhibition, read-out: GI50 HT-29; for CC50: read-out: LC50 HT-29; for IC (TGI): read-out: TGI HT-29
Outline: as §1

IGROV-ET = test: SRB colorimetric cell growth inhibition assay, IGROV-ET (ET-743 resistant); conditions: Homo sapiens, IGROV-ET; for GI50: GI=growth inhibition, read-out: GI50 IGROV-ET; for CC50: read-out: LC50 IGROV-ET; for IC (TGI): read-out: TGI IGROV-ET
Outline: as §1

HeLa = test: SRB colorimetric cell growth inhibition assay, HeLa; conditions: Homo sapiens, HeLa; for GI50: GI=growth inhibition, read-out: GI50 HELA; for CC50: read-out: LC50 HELA; for IC (TGI): read-out: TGI HELA
Outline: as §1

DU-145 = test: SRB colorimetric cell growth inhibition assay, DU-145; conditions: Homo sapiens, DU-145, DU-145; for GI50: GI=growth inhibition, read-out: GI50 DU-145; for CC50: read-out: LC50 DU-145; for IC (TGI): read-out: TGI DU-145
Outline: as §1

HeLa-APL = test: SRB colorimetric cell growth inhibition assay, HeLa-APL (aplidine resistant); conditions: Homo sapiens, HELA-APL; for GI50: GI=growth inhibition, read-out: GI50 HELA-APL; for CC50: read-out: LC50 HELA-APL; for IC (TGI): read-out: TGI HELA-APL
Outline: as §1

PANC-1 = test: SRB colorimetric cell growth inhibition assay, PANC-1; conditions: Homo sapiens, PANC-1, PANC-1; for GI50: GI=growth inhibition, read-out: GI50 PANC-1; for CC50: read-out: LC50 PANC-1; for IC (TGI): read-out: TGI PANC-1
Outline: as §1

A-549 = test: SRB colorimetric cell growth inhibition assay, A-549; conditions: Homo sapiens, A549, A-549; for GI50: GI=growth inhibition, read-out: GI50 A-549; for CC50: read-out: LC50 A-549; for IC (TGI): read-out: TGI A-549
Outline: as §1

SK-MEL-28 = test: SRB colorimetric cell growth inhibition assay, SK-MEL-28; conditions: Homo sapiens, SK-MEL-28, MEL-28; for GI50: GI=growth inhibition, read-out: GI50 MEL-28; for CC50: read-out: LC50 MEL-28; for IC (TGI): read-out: TGI MEL-28
Outline: as §1

LoVo = test: SRB colorimetric cell growth inhibition assay, LoVo; conditions: Homo sapiens, LoVo; for GI50: GI=growth inhibition, read-out: GI50 LOVO; for CC50: read-out: LC50 LOVO; for IC (TGI): read-out: TGI LOVO
Outline: as §1

SK-BR-3 = test: SRB colorimetric cell growth inhibition assay, SK-BR-3; conditions: Homo sapiens, SK-BR-3, SK-BR-3; for GI50: GI=growth inhibition, read-out: GI50 SK-BR-3; for CC50: read-out: LC50 SK-BR-3; for IC (TGI): read-out: TGI SK-BR-3
Outline: as §1

[1] = LC=cell killing (cytotoxic effect)
[2] = TGI=total growth inhibition (cytostatic effect)
[3] = cell killing (cytotoxic effect)
[4] = total growth inhibition (cytostatic effect)

With `COc1cc(-c2c3n(c4c(=O)oc5cc(N)c(OC)cc5c24)CCc2cc(OC)c(OC)cc2-3)ccc1N` [Compound 57] the GI50 (IGROV) was 0.847 µM, the CC50 (IGROV; [1]) was 19.5 µM and the IC (TGI) (IGROV; [2]) was 5.88 µM. It also gave a GI50 (LoVo-Dox) of 0.828 µM, a CC50 (LoVo-Dox; [1]) of 19.5 µM and an IC (TGI) (LoVo-Dox; [2]) of 6.91 µM. The GI50 (K-562) was 2.69 µM, the CC50 (K-562; [1]) was 19.5 µM and the IC (TGI) (K-562; [2]) was 19.5 µM. The GI50 (LNCaP) was 2.16 µM, the CC50 (LNCaP; [1]) was 13.9 µM and the IC (TGI) (LNCaP; [2]) was 5.47 µM. It also gave a GI50 (HT-29) of 3.49 µM, a CC50 (HT-29; [1]) of 19.5 µM and an IC (TGI) (HT-29; [2]) of 19.5 µM. The GI50 (IGROV-ET) was 0.89 µM, the CC50 (IGROV-ET; [1]) was 19.5 µM and the IC (TGI) (IGROV-ET; [2]) was 6.43 µM. It also gave a GI50 (HeLa) of 0.685 µM, a CC50 (HeLa; [1]) of 19.5 µM and an IC (TGI) (HeLa; [2]) of 5.67 µM. It also gave a GI50 (DU-145) of 3.89 µM, a CC50 (DU-145; [1]) of 19.5 µM and an IC (TGI) (DU-145; [2]) of 12.2 µM. For the same compound, the GI50 (HeLa-APL) was 3.68 µM, the CC50 (HeLa-APL; [1]) was 19.5 µM and the IC (TGI) (HeLa-APL; [2]) was 11 µM. The GI50 (PANC-1) was 0.611 µM, the CC50 (PANC-1; [1]) was 19.5 µM and the IC (TGI) (PANC-1; [2]) was 9.7 µM. The GI50 (A-549) was 1.29 µM, the CC50 (A-549; [1]) was 19.5 µM and the IC (TGI) (A-549; [2]) was 19.5 µM. The GI50 (SK-MEL-28) was 1.68 µM, the CC50 (SK-MEL-28; [1]) was 19.5 µM and the IC (TGI) (SK-MEL-28; [2]) was 12.6 µM. The GI50 (LoVo) was 0.717 µM, the CC50 (LoVo; [1]) was 19.5 µM and the IC (TGI) (LoVo; [2]) was 5.3 µM. The GI50 (SK-BR-3) was 0.317 µM, the CC50 (SK-BR-3; [1]) was 19.5 µM and the IC (TGI) (SK-BR-3; [2]) was 5.24 µM.
With `COc1cc(-c2c3c4cc(OC)c(OC(=O)[C@@H](N)CC(C)C)cc4oc(=O)c3n3ccc4cc(OC(=O)[C@@H](N)CC(C)C)c(OC)cc4c23)ccc1OC(=O)[C@@H](N)CC(C)C` [Compound 181] the GI50 (IGROV) was 0.038 µM, the CC50 (IGROV; [3]) was 3.2 µM and the IC (TGI) (IGROV; [4]) was 0.231 µM. It also gave a GI50 (LoVo-Dox) of 0.0945 µM, a CC50 (LoVo-Dox; [3]) of 10.5 µM and an IC (TGI) (LoVo-Dox; [4]) of 0.47 µM. For the same compound, the GI50 (K-562) was 0.0328 µM, the CC50 (K-562; [3]) was 7.14 µM and the IC (TGI) (K-562; [4]) was 0.444 µM. For the same compound, the GI50 (LNCaP) was 0.0593 µM, the CC50 (LNCaP; [3]) was 0.678 µM and the IC (TGI) (LNCaP; [4]) was 0.237 µM. The GI50 (HT-29) was 3.06 µM, the CC50 (HT-29; [3]) was 10.5 µM and the IC (TGI) (HT-29; [4]) was 10.5 µM. The GI50 (IGROV-ET) was 0.05 µM, the CC50 (IGROV-ET; [3]) was 10.5 µM and the IC (TGI) (IGROV-ET; [4]) was 0.341 µM. The GI50 (HeLa) was 0.0478 µM, the CC50 (HeLa; [3]) was 10.5 µM and the IC (TGI) (HeLa; [4]) was 0.632 µM. For the same compound, the GI50 (DU-145) was 0.0249 µM, the CC50 (DU-145; [3]) was 10.5 µM and the IC (TGI) (DU-145; [4]) was 0.0594 µM. For the same compound, the GI50 (HeLa-APL) was 0.0667 µM, the CC50 (HeLa-APL; [3]) was 8.14 µM and the IC (TGI) (HeLa-APL; [4]) was 0.477 µM. For the same compound, the GI50 (PANC-1) was 0.0864 µM, the CC50 (PANC-1; [3]) was 10.5 µM and the IC (TGI) (PANC-1; [4]) was 2.09 µM. It also gave a GI50 (A-549) of 0.0198 µM, a CC50 (A-549; [3]) of 8.18 µM and an IC (TGI) (A-549; [4]) of 0.209 µM. The GI50 (SK-MEL-28) was 0.0168 µM, the CC50 (SK-MEL-28; [3]) was 2.14 µM and the IC (TGI) (SK-MEL-28; [4]) was 0.0956 µM. The GI50 (LoVo) was 0.331 µM, the CC50 (LoVo; [3]) was 10.5 µM and the IC (TGI) (LoVo; [4]) was 1.1 µM. The GI50 (SK-BR-3) was 0.0206 µM, the CC50 (SK-BR-3; [3]) was 0.862 µM and the IC (TGI) (SK-BR-3; [4]) was 0.0592 µM.
Work on `COc1cc(-c2c3c4cc(OC)c(OC(=O)CCCCCN)cc4oc(=O)c3n3ccc4c(OC(=O)CCCCCN)c(OC)c(OC)cc4c23)ccc1OC(=O)CCCCCN` [Compound 193] yielded a GI50 (IGROV) of 0.0741 µM, a CC50 (IGROV; [3]) of 3.48 µM and an IC (TGI) (IGROV; [4]) of 0.41 µM. It also gave a GI50 (LoVo-Dox) of 0.313 µM, a CC50 (LoVo-Dox; [3]) of 10.2 µM and an IC (TGI) (LoVo-Dox; [4]) of 10.2 µM. For the same compound, the GI50 (K-562) was 0.123 µM, the CC50 (K-562; [3]) was 3.91 µM and the IC (TGI) (K-562; [4]) was 0.399 µM. For the same compound, the GI50 (LNCaP) was 0.118 µM, the CC50 (LNCaP; [3]) was 5.49 µM and the IC (TGI) (LNCaP; [4]) was 0.491 µM. It also gave a GI50 (HT-29) of 10.2 µM, a CC50 (HT-29; [3]) of 10.2 µM and an IC (TGI) (HT-29; [4]) of 10.2 µM. The GI50 (IGROV-ET) was 0.136 µM, the CC50 (IGROV-ET; [3]) was 9.59 µM and the IC (TGI) (IGROV-ET; [4]) was 0.432 µM. The GI50 (HeLa) was 0.35 µM, the CC50 (HeLa; [3]) was 10.2 µM and the IC (TGI) (HeLa; [4]) was 10.2 µM. For the same compound, the GI50 (DU-145) was 0.0333 µM, the CC50 (DU-145; [3]) was 0.438 µM and the IC (TGI) (DU-145; [4]) was 0.128 µM. It also gave a GI50 (HeLa-APL) of 0.797 µM, a CC50 (HeLa-APL; [3]) of 10.2 µM and an IC (TGI) (HeLa-APL; [4]) of 10.2 µM. The GI50 (PANC-1) was 0.278 µM, the CC50 (PANC-1; [3]) was 10.2 µM and the IC (TGI) (PANC-1; [4]) was 3.6 µM. For the same compound, the GI50 (A-549) was 0.607 µM, the CC50 (A-549; [3]) was 10.2 µM and the IC (TGI) (A-549; [4]) was 10.2 µM. It also gave a GI50 (SK-MEL-28) of 0.101 µM, a CC50 (SK-MEL-28; [3]) of 10.2 µM and an IC (TGI) (SK-MEL-28; [4]) of 0.497 µM. For the same compound, the GI50 (LoVo) was 0.35 µM, the CC50 (LoVo; [3]) was 10.2 µM and the IC (TGI) (LoVo; [4]) was 0.847 µM. The GI50 (SK-BR-3) was 0.227 µM, the CC50 (SK-BR-3; [3]) was 10.2 µM and the IC (TGI) (SK-BR-3; [4]) was 0.567 µM.
